Data as given in publication PMC11865548 (Nature Communications, 2025).

What was measured:
MexL [1] = target: T1, MexL (Pseudomonas aeruginosa, UniProt Q9HXW2); experiment: BLI; format: binding
T1 sequence (Q9HXW2 1-212): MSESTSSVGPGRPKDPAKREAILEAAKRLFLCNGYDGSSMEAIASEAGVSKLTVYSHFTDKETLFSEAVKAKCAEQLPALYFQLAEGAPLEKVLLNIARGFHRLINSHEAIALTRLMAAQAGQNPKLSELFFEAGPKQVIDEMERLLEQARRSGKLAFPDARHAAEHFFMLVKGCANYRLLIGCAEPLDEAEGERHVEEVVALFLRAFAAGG

MexL [2] = target: T1, MexL; experiment: thermal shift; format: biochemical

Row | Structure (SMILES) | Kd (MexL [1]) | thermal shift (Tm decrease) and EMSA interference with DNA binding (MexL [2])
1 | Cn1c2cccc(=O)c-2nc2ccccc21 [PYO, pyocyanin] | 84.2 ± 1.8 µM | 
2 | Oc1cc(Cl)ccc1Oc1ccc(Cl)cc1Cl [TCS, triclosan] |  | these two antimicrobials both can interfere with the DNA-binding activity of MexL in EMSA
3 | CN(C)[C@@H]1C(O)=C(C(N)=O)C(=O)[C@@]2(O)C(O)=C3C(=O)c4c(O)cccc4[C@@](C)(O)[C@H]3C[C@@H]12 [TET, tetracycline] |  | both TET and TCS also significantly reduce the Tm values of MexL (Fig. 6b), indicating their interaction with MexL
